Biological target: Opioid receptor (Rattus norvegicus, UniProt P33533+P34975+P33535)
Test: Inhibition of [3H]DAMPGO binding was determined using standard binding assay in rat brain homogenates against opioid receptor
Assay type: tissue-based

Row | SMILES | IC50 [nM]
1 | Oc1ccc2c3c1O[C@H]1/C(=N/N=C4\CC[C@@]5(O)[C@H]6Cc7ccc(O)c8c7[C@@]5(CCN6CC5CC5)[C@H]4O8)CC[C@@]4(O)[C@@H](C2)N(CC2CC2)CC[C@]314 (mixture of isomers) [NALTREXONAZINE] | 0.35
2 | Oc1ccc2c3c1O[C@H]1/C(=N/N=C4\CC[C@@]5(O)[C@H]6Cc7ccc(O)c8c7[C@@]5(CCN6CC5CC5)[C@H]4O8)CC[C@@]4(O)[C@@H](C2)N(CC2CC2)CC[C@]314 (stereo in doubt; anti) [NALTREXONAZINE] | 0.45
3 | Oc1ccc2c3c1O[C@H]1/C(=N/N=C4\CC[C@@]5(O)[C@H]6Cc7ccc(O)c8c7[C@@]5(CCN6CC5CC5)[C@H]4O8)CC[C@@]4(O)[C@@H](C2)N(CC2CC2)CC[C@]314 (stereo in doubt; syn) [NALTREXONAZINE] | 0.47

From ChEMBL document CHEMBL1123817, “X-ray crystal structure of the opioid ligand naltrexonazine” (J Med Chem, 1987)
